PubChem BioAssay (NCI)
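1) Cells in 96-well plates. 2) Compound, 48 h, 5 concentrations. 3) Linear interpolation between surrounding doses. 4) Unreached endpoint = highest concentration. GI50 is the concentration that inhibits growth by half. At the TGI there is no net growth.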 *1 amine or outer side, *2 acyl side, *3 side chain or, on linkers, in order; H or OH if unused. Where a SMILES comes first, the peptide text is derived from it. Bridges are numbered along the chain shown (N, C = ends). [ ]: non-standard residue; d: D form. The star is where a group is joined. Phe(3-Me) = Cc1cccc(C[C@H](N)C(=O)O)c1; NH(4-Cl-2-F-phenyl) = Fc1cc(Cl)ccc1N*; Pro(4R-Me) = C[C@H]1CN[C@H](C(=O)O)C1; Propanoyl(3-NMe2) = CN(C)CCC(=O)*; Hyp = O=C(O)[C@@H]1C[C@@H](O)CN1; aThr = C[C@H](O)[C@H](N)C(=O)O; Pip = O=C(O)[C@@H]1CCCCN1; CO = O=C([*:1])[*:2]

Key:
Assay in all cases: NCI tumour cell line growth inhibition, 48 h
ACHN renal = system: ACHN renal
BT-549 breast = system: BT-549 breast
MOLT-4 leukemia = system: MOLT-4 leukemia
RPMI-8226 leukemia = system: RPMI-8226 leukemia
SK-MEL-28 melanoma = system: SK-MEL-28 melanoma
SNB-75 CNS = system: SNB-75 CNS
SW-620 colon = system: SW-620 colon
T-47D breast = system: T-47D breast

| SMILES | GI50 (ACHN renal) [µM] | TGI (ACHN renal) [µM] | GI50 (BT-549 breast) [µM] | TGI (BT-549 breast) [µM] | GI50 (MOLT-4 leukemia) [µM] | TGI (MOLT-4 leukemia) [µM] | GI50 (RPMI-8226 leukemia) [µM] | TGI (RPMI-8226 leukemia) [µM] | GI50 (SK-MEL-28 melanoma) [µM] | TGI (SK-MEL-28 melanoma) [µM] | GI50 (SNB-75 CNS) [µM] | TGI (SNB-75 CNS) [µM] | GI50 (SW-620 colon) [µM] | TGI (SW-620 colon) [µM] | GI50 (T-47D breast) [µM] | TGI (T-47D breast) [µM] |
| --- | --- | --- | --- | --- | --- | --- | --- | --- | --- | --- | --- | --- | --- | --- | --- | --- |
| O=c1cccc(C#CC#C/C=C/CO)o1 | 2.13 | 4.86 | 2.1 | 5.17 | 9.1 | > 100 | 2.63 | > 100 | 2.75 | 10.9 | 17 | 92.9 | 3.3 | > 24.9 | 2.36 | 4.46 |
| O=[N+]([O-])c1ccc(-c2cn(-c3ccc(Cl)cc3)cn2)cc1 |  | > 100 |  | > 100 |  | > 100 |  | > 100 |  | > 100 |  | 35.2 |  | > 100 |  | > 100 |
| COc1ccc(Nc2ncccc2C(=O)NCc2cn(Cc3cccc(Oc4ccccc4)c3)nn2)cc1 | 4.79 | > 100 | 4.58 | > 100 | 2.91 | > 100 | 4.84 | > 100 | 3.88 | > 100 | 3.09 | > 100 | 3.86 | > 100 | 4.03 | > 100 |
| COc1cc(NC(N)=NCCC(C)(C)c2ccc(C(F)(F)F)cc2)ncc1C#N | 1.65 | 3.01 | 1.74 | 3.21 | 1.84 | 5.25 | 1.27 | 3.3 | 2.01 | 3.52 | 1.66 | 3.26 | 2.01 | 4.14 | 1.51 | 3.5 |
| COc1cc(C2C(C#N)=C(N)Oc3cc(O)ccc32)cc(OC)c1OC (configuration not stated) | 0.882 | > 100 | 0.419 | 33.3 | 0.584 | > 100 | 0.65 | > 89.6 | 0.86 | > 100 | 0.271 | > 100 | 0.361 | > 100 |  |  |
| CC[C@@]1(O)C(=O)OCc2c1cc1n(c2=O)Cc2c-1nc1ccccc1c2/C=N/OC(C)(C)C | < 0.01 | 0.127 | < 0.0139 | 2.02 | < 0.01 | 0.742 | 0.0116 | 0.551 | 0.372 | 9.07 | < 0.0109 | 0.978 | < 0.011 | 14.2 | < 0.01 | 15.1 |
| COc1ccc(-c2nocc2-c2cc(OC)c(OC)c(OC)c2)cc1 | 1.53 | > 70.3 | 0.112 | 19.5 | 0.3 | > 100 | 0.348 | 30.9 | 6.9 | > 89.9 | 0.0751 | > 100 | 0.0466 | > 100 |  |  |
| CC(=O)Nc1sc2c(c1-c1nc3ccccc3s1)CNC2 | 1.28 | 7.56 | 6.83 | 14.7 | 2.03 | 9.2 | 3.57 | 19.3 | 2.94 | 9.93 | 1.81 | 9.52 | 2.33 | 48.3 | 2.36 | 22.3 |
| CSc1nc2c(c(=O)[nH]1)C(c1ccc(Cl)cc1)C1=C(N2)/C(=C/c2ccc(Cl)cc2)CNC1 (configuration not stated) | 1.81 | 3.86 | 1.8 | 3.68 | 2.45 | 11 | 0.629 | 3.14 | 2.3 | 6.47 | 2.69 | 11.5 | 2.86 | 10 | 3.65 | 15.7 |
| Cc1cccc(C[C@H](NC(=O)Nc2ccc(Cl)cc2F)C(=O)N[C@@H]2C(=O)N3C[C@H](OC(=O)CCN(C)C)C[C@H]3C(=O)N3CCCC[C@H]3C(=O)N[C@@H](C)C(=O)N3C[C@H](C)C[C@H]3C(=O)O[C@H]2C)c1 ({NH(4-Cl-2-F-phenyl)-CO}-[Phe(3-Me)][aThr][Hyp](Propanoyl(3-NMe2))[Pip]A[Pro(4R-Me)]; ester 2-C) | 1.75 | 3.49 | 0.526 | 2.48 | 0.811 | 4.65 | 0.181 | 1.88 | 0.706 | 2.1 | 1.26 | 9.44 | 0.6 | 2.94 | 0.448 | 4.53 |
| O=S(=O)(NCCCNc1cc(-c2cn(-c3ccccc3)nc2-c2cccc(O)c2)ccn1)c1ccc(Cl)cc1 | 2.74 | 13.6 |  |  | 1.26 | 3.69 | 1.49 | 4.68 |  |  | 1.45 | 7.99 | 1.62 | 3.54 | 1.48 | 5.21 |
| CCCCCCCCCC(CCCC(O)CC(=O)O)OC1OC(COC2OC(C)C(O)C(O)C2O)C(O)C(O)C1OC1OC(CO)C(O)C(O)C1OC1OC(C)C(O)C(O)C1O (configuration not stated) | > 40 | > 40 | > 40 | > 40 | > 40 | > 40 | > 40 | > 40 | > 40 | > 40 | > 40 | > 40 | > 40 | > 40 | > 40 | > 40 |
| C/C(=N\NC(=O)c1ccncc1)c1ccc(O)cc1O | 4.48 | > 100 | > 100 | > 100 | 4.14 | > 100 | 31.5 | > 100 | 9.26 | > 100 | 14.1 | 88.2 | 7.68 | > 100 | 11.4 | > 100 |
| Cc1nn(-c2ccc(Br)cc2)c(C)c1CC(=O)c1cc(O)ccc1O | 9.16 | 24.6 | 15.8 | 38.4 | 3.26 | > 50 | 8.21 | > 50 | 12.6 | 47.5 | 10.8 | 31.1 | 14.4 | > 50 |  |  |
| O=C1OC2C(O)C(=O)OC2C1O (configuration not stated) |  | > 100 |  |  |  | > 100 |  |  |  | > 100 |  | > 100 |  | > 100 |  | > 100 |
